pIC50: −log10 of the molar value. Where two headings read alike, the source gives them in different places.
Columns and labels:
[1] = system: HepG2-A16-CD81EGFP cells; conditions: for pIC50: read-out: Tox_IC50, HepG2 cytotoxicity
[2] = system: Plasmodium berghei (Pb-Luc) exoerythrocytic-stage parasites; conditions: for pIC50: read-out: PbLuc_IC50
[3] = sheet 2nd round, maximal inhibition in dose response
[4] = first series, fraction of control
[5] = second series, fraction of control
[6] = 2nd round, maximal inhibition in dose series
[7] = first series of columns, fraction of control
[8] = second series of columns (replicate), fraction of control

Structure (SMILES): CC(C)[C@H]1COCn2nncc2CCCC(=O)N1 [BRD-K14350179-001-01-1]
- pIC50 ([1]; sheet 2nd round): < 5.00
- Tox_max_inhibition (%) [1, 3]: 5.35%
- normalized signal at concentration 10 ([2]; first series of dose-response columns, fraction of control): 0.98
- normalized signal at concentration 0.000508053 [2, 4]: 0.82
- normalized signal at concentration 0.00152416 [2, 4]: 0.73
- normalized signal at concentration 0.00457247 [2, 4]: 0.94
- normalized signal at concentration 0.0137174 [2, 4]: 0.81
- normalized signal at concentration 0.0411523 [2, 4]: 0.80
- normalized signal at concentration 0.123457 [2, 4]: 0.97
- normalized signal at concentration 0.37037 [2, 4]: 0.84
- normalized signal at concentration 1.11111 [2, 4]: 0.77
- normalized signal at concentration 3.33333 [2, 4]: 0.76
- pIC50 ([2]; sheet 2nd round, Broad compounds, dose response): < 5.00
- normalized signal at concentration 10 ([2]; second series of dose-response columns, fraction of control): 1.05
- normalized signal at concentration 0.000508053 [2, 5]: 0.94
- normalized signal at concentration 0.00152416 [2, 5]: 1.04
- normalized signal at concentration 0.00457247 [2, 5]: 1.06
- normalized signal at concentration 0.0137174 [2, 5]: 0.87
- normalized signal at concentration 0.0411523 [2, 5]: 1.07
- normalized signal at concentration 0.123457 [2, 5]: 1.10
- normalized signal at concentration 0.37037 [2, 5]: 1.01
- normalized signal at concentration 1.11111 [2, 5]: 0.86
- normalized signal at concentration 3.33333 [2, 5]: 0.89
- PbLuc_max_inhibition (%) [2, 3]: 27%

Structure (SMILES): COc1ccc(NC(=O)N(C)C[C@H]2Oc3ccc(NC(=O)Nc4cccc5ccccc45)cc3CC(=O)N([C@@H](C)CO)C[C@@H]2C)cc1 [BRD-K15104969-001-01-5]
- Tox_max_inhibition (%) [1, 6]: 14%
- pIC50 ([1]; 2nd round, unit inferred): < 5.00
- PbLuc_max_inhibition (%) [2, 6]: 44%
- normalized signal at 0.000508053 (first series) ([2]; concentration 0.000508053, first replicate series, fraction of control): 0.969
- normalized signal at 0.000508053 (second series) ([2]; concentration 0.000508053, second replicate series, fraction of control): 0.7927
- normalized signal at 0.00152416 (first series) ([2]; concentration 0.00152416, first replicate series, fraction of control): 1.086
- normalized signal at 0.00152416 (second series) ([2]; concentration 0.00152416, second replicate series, fraction of control): 0.9921
- normalized signal at 0.00457247 (first series) ([2]; concentration 0.00457247, first replicate series, fraction of control): 0.8915
- normalized signal at 0.00457247 (second series) ([2]; concentration 0.00457247, second replicate series, fraction of control): 0.8364
- normalized signal at 0.0137174 (first series) ([2]; concentration 0.0137174, first replicate series, fraction of control): 1.267
- normalized signal at 0.0137174 (second series) ([2]; concentration 0.0137174, second replicate series, fraction of control): 0.9174
- normalized signal at 0.0411523 (first series) ([2]; concentration 0.0411523, first replicate series, fraction of control): 0.9934
- normalized signal at 0.0411523 (second series) ([2]; concentration 0.0411523, second replicate series, fraction of control): 0.8265
- normalized signal at 0.123457 (first series) ([2]; concentration 0.123457, first replicate series, fraction of control): 1.28
- normalized signal at 0.123457 (second series) ([2]; concentration 0.123457, second replicate series, fraction of control): 0.8011
- normalized signal at 0.37037 (first series) ([2]; concentration 0.37037, first replicate series, fraction of control): 0.9047
- normalized signal at 0.37037 (second series) ([2]; concentration 0.37037, second replicate series, fraction of control): 0.8073
- normalized signal at 1.11111 (first series) ([2]; concentration 1.11111, first replicate series, fraction of control): 0.8441
- normalized signal at 1.11111 (second series) ([2]; concentration 1.11111, second replicate series, fraction of control): 0.8236
- normalized signal at 3.33333 (first series) ([2]; concentration 3.33333, first replicate series, fraction of control): 0.7436
- normalized signal at 3.33333 (second series) ([2]; concentration 3.33333, second replicate series, fraction of control): 1.005
- normalized signal at 10 (first series) ([2]; concentration 10, first replicate series, fraction of control): 0.5627
- normalized signal at 10 (second series) ([2]; concentration 10, second replicate series, fraction of control): 0.5558
- pIC50 ([2]; 2nd round, Broad DOS compounds, unit not printed (dose series head 10 to 0.000508053)): < 5.00

Structure (SMILES): O=C(Nc1ccc2c(c1)[C@@H]1C[C@@H](CC(=O)N3CCc4ccccc4C3)O[C@@H](CO)[C@@H]1O2)c1ccc2c(c1)OCO2 [BRD-K15778794-001-01-7]
- pIC50 ([1]; sheet 2nd round): < 5.00
- Tox_max_inhibition (%) [1, 3]: 18%
- normalized signal at concentration 0.000508053 [2, 7]: 1.025
- normalized signal at concentration 0.00152416 [2, 7]: 1.17
- normalized signal at concentration 0.00457247 [2, 7]: 0.8971
- normalized signal at concentration 0.0137174 [2, 7]: 1.186
- normalized signal at concentration 0.0411523 [2, 7]: 1.0917
- normalized signal at concentration 0.123457 [2, 7]: 0.8992
- normalized signal at concentration 0.37037 [2, 7]: 1.075
- normalized signal at concentration 1.11111 [2, 7]: 1.105
- normalized signal at concentration 3.33333 [2, 7]: 0.9056
- normalized signal at concentration 10 [2, 7]: 0.4372
- pIC50 ([2]; sheet 2nd round, Pb-Luc exoerythrocytic stage, 10-point dose response, top concentration 10): < 5.00
- normalized signal at concentration 0.000508053 [2, 8]: 0.9828
- normalized signal at concentration 0.00152416 [2, 8]: 0.8672
- normalized signal at concentration 0.00457247 [2, 8]: 0.9127
- normalized signal at concentration 0.0137174 [2, 8]: 0.911
- normalized signal at concentration 0.0411523 [2, 8]: 0.8229
- normalized signal at concentration 0.123457 [2, 8]: 0.8258
- normalized signal at concentration 0.37037 [2, 8]: 0.9225
- normalized signal at concentration 1.11111 [2, 8]: 1.043
- normalized signal at concentration 3.33333 [2, 8]: 0.8183
- normalized signal at concentration 10 [2, 8]: 0.6797
- PbLuc_max_inhibition (%) [2, 3]: 56%

Structure (SMILES): C[C@@H]1CCCCO[C@@H](CN(C)S(=O)(=O)c2ccc(F)cc2)[C@H](C)CN([C@H](C)CO)C(=O)c2cc(N(C)C)ccc2O1 [BRD-K17570530-001-01-5]
- pIC50 ([1]; sheet "2nd round"): < 5.00
- Tox_max_inhibition (%) ([1]; sheet "2nd round"): 4.52%
- normalised signal at concentration 0.000508053 (first series) ([2]; concentration 0.000508053, first series): 0.9121
- normalised signal at concentration 0.000508053 (second series) ([2]; concentration 0.000508053, second series): 0.9459
- normalised signal at concentration 0.00152416 (first series) ([2]; concentration 0.00152416, first series): 0.7511
- normalised signal at concentration 0.00152416 (second series) ([2]; concentration 0.00152416, second series): 0.8649
- normalised signal at concentration 0.00457247 (first series) ([2]; concentration 0.00457247, first series): 0.9449
- normalised signal at concentration 0.00457247 (second series) ([2]; concentration 0.00457247, second series): 0.9685
- normalised signal at concentration 0.0137174 (first series) ([2]; concentration 0.0137174, first series): 0.964
- normalised signal at concentration 0.0137174 (second series) ([2]; concentration 0.0137174, second series): 0.9508
- normalised signal at concentration 0.0411523 (first series) ([2]; concentration 0.0411523, first series): 1.052
- normalised signal at concentration 0.0411523 (second series) ([2]; concentration 0.0411523, second series): 0.9313
- normalised signal at concentration 0.123457 (first series) ([2]; concentration 0.123457, first series): 1.16
- normalised signal at concentration 0.123457 (second series) ([2]; concentration 0.123457, second series): 0.9927
- normalised signal at concentration 0.37037 (first series) ([2]; concentration 0.37037, first series): 0.8577
- normalised signal at concentration 0.37037 (second series) ([2]; concentration 0.37037, second series): 0.9491
- normalised signal at concentration 1.11111 (first series) ([2]; concentration 1.11111, first series): 0.9131
- normalised signal at concentration 1.11111 (second series) ([2]; concentration 1.11111, second series): 0.9395
- normalised signal at concentration 3.33333 (first series) ([2]; concentration 3.33333, first series): 0.7629
- normalised signal at concentration 3.33333 (second series) ([2]; concentration 3.33333, second series): 0.867
- normalised signal at concentration 10 (first series) ([2]; concentration 10, first series of dose columns): 0.8313
- normalised signal at concentration 10 (second series) ([2]; concentration 10, second series of dose columns): 0.7644
- pIC50 ([2]; sheet "2nd round", Broad compounds, dose response top concentration 10): < 5.00
- PbLuc_max_inhibition (%) ([2]; sheet "2nd round"): 25%

— article PMC4890880 (ACS infectious diseases, 2016)
